# According to ChEMBL document CHEMBL1122312, “Synthesis and 5-lipoxygenase inhibitory activities of eicosanoid compounds” (J Med Chem, 1983):
# Test system: Arachidonate 5-lipoxygenase (Cavia porcellus)
# Experiment: Inhibitory activity against 5-lipoxygenase at a dose of 0.1 mM
row,Structure (SMILES),inhibition
1,CCCCCCCCCCCCCCC1CC1CCCC(=O)O (stereo in doubt; 23),49%
2,CCCCC/C=C\C\C=C/C=C/C=C/[C@@H]1O[C@H]1CCCC(=O)O,78%
3,CCCCC/C=C\C/C=C\C/C=C\C=C\C(=O)CCCC(=O)OC,93%
4,CCCCC/C=C\C\C=C/C=C/C=C/C1SC1CCCC(=O)OC (stereo not given),60%
5,CCCCCCCCCCCCCCC1CC1CCCC(=O)O (stereo in doubt; 25),1%

# The remaining lines, values ahead:
row,inhibition,Structure (SMILES)
1,34%,CCCCC/C=C\C/C=C\C/C=C\C1(/C=C\CCCC(=O)O)CC1
2,98%,CCCCC/C=C\C\C=C/C=C/C=C/C1CC1CCCC(=O)O (stereo not given)
3,86%,CCCCC/C=C\C\C=C/C=C/C=C/C1CC1CCCCC(=O)O (stereo not given)
4,5%,CCCCC/C=C\C/C=C\C/C=C\CC1CC1CCCC(=O)O (stereo not given)
5,47%,CCCCC/C=C\C/C=C\C/C=C\C=C\C(CO)CCCC(=O)O (stereo not given)
